Measured values as given in patent publication US4703039A, “Method of producing biologically active molecules having extended life time” (New England Deaconess Hospital Corporation, priority 1985, dated 1987).
Ends that are not written are not given here.

Columns and labels:
[1] = test system: hemostatic plug formation; assay: In vivo rabbit superior mesenteric artery perfusion, bleeding time; conditions: FIG. 11
Procedure: This Example illustrates an in vivo model of mesentric artery perfusion in a rabbit. The experimental model employed involved anesthesized white New Zealand rabbits, weighing about 2.0 kg, and fed standard diet. The right femoral artery was canulated for blood pressure measurement and blood sampling. A midline abdominal incision was made to exteriorize the small intestine, the mesentery was draped over a microscope table, and superfused continuously with saline at 37° C. […] Small arteries of 100-200 μm external diameter were cut one third across with a surgical blade at the junction of the mesentery with the intestine. The time in seconds was determined from incision until the bleeding was arrested by a spontaneously formed hemostatic plug. Infusions of selected agents tested for their effects on platelet activation were through the mesenteric cannula with a constant volume Harvard pump at a flow rate of 0.11 ml/min. Three animals were used for each dose unless otherwise indicated. Blood pressure, hematocrit, and platelet count were measured prior to and after bleeding time determinations.

[2] = test system: ADP-treated human platelets; assay: Aggregation of ADP-treated human platelets washed free of fibrinogen, by conjugates (percent transmission); format: cell-based; conditions: FIG. 6 curves b and c
Description: FIG. 5 illustrates the effectiveness of the divalent conjugate on promoting this inhibition reaction. Human platelets were washed free of fibrinogen and other binding proteins and then treated with ADP. […] The lower curve on FIG. 5 is a control of the identical conjugate with a peptide bound to the human serum albumin that is […] to the receptor site.
This Example illustrates that a polyvalent conjugate can also be manufactured and used in an aggregation reaction. […] Multiple copies of a different peptide, residues 397-411 of the gamma chain of fibrinogen bound to a cysteine residue were conjugated to a human serum albumin backbone. Curve a on FIG. 6 illustrates the aggregation of ADP-treated human platelets by this polyvalent conjugate. […] Curves b and c on FIG. 6 are controls illustrating the effectiveness of the conjugate as an artificial fibrinogen. In Curve b, the "model molecule" was first mixed with Fab fragments of rabbit antibody which had been made against the terminal portion of the gamma chain of human fibrinogen. […] This is evident from the almost flat response shown as Curve b on FIG. 6.
The alternate control, inhibiting the artificial fibrinogen reaction using the peptides themselves, is shown in Curve c. In this reaction, the platelets were mixed with unconjugated peptides and then the conjugate was used in attempt to aggregate the platelets.

[3] = test system: ADP-modified human platelet receptor site for fibrinogen; assay: Inhibition of 125I-fibrinogen binding to ADP-treated human platelets; conditions: 10^8 human platelets/0.55 ml treated with 5 mM of ADP, FIG. 8
Procedure: FIG. 3 is a graph showing that the inhibitory effect of the same conjugate is concentration dependent. In this experiment, human platelets were treated with ADP and a variety of concentrations of the conjugate were added to affect inhibition of ^125 I-fibrinogen binding to the platelets. As the concentration of the conjugate increases, inhibition of binding goes from 0 to almost 100%, showing the effectiveness of the conjugate.

[4] = molecular target: T1, ADP-modified human platelets (von Willebrand factor binding site) (Homo sapiens, UniProt P05106+P08514); assay: Inhibition of 125I-labelled von Willebrand factor binding to ADP-treated human platelets; conditions: 10^8 human platelets/0.55 ml treated with 5 mM of ADP, 14 μg 125I-von Willebrand factor, FIG. 8
T1 construct: 10^8 human platelets/0.55 ml treated with 5 mM of ADP; endogenous in cells; host or cells: human platelets treated with ADP
T1 sequence (P08514 32-887 limits assumed): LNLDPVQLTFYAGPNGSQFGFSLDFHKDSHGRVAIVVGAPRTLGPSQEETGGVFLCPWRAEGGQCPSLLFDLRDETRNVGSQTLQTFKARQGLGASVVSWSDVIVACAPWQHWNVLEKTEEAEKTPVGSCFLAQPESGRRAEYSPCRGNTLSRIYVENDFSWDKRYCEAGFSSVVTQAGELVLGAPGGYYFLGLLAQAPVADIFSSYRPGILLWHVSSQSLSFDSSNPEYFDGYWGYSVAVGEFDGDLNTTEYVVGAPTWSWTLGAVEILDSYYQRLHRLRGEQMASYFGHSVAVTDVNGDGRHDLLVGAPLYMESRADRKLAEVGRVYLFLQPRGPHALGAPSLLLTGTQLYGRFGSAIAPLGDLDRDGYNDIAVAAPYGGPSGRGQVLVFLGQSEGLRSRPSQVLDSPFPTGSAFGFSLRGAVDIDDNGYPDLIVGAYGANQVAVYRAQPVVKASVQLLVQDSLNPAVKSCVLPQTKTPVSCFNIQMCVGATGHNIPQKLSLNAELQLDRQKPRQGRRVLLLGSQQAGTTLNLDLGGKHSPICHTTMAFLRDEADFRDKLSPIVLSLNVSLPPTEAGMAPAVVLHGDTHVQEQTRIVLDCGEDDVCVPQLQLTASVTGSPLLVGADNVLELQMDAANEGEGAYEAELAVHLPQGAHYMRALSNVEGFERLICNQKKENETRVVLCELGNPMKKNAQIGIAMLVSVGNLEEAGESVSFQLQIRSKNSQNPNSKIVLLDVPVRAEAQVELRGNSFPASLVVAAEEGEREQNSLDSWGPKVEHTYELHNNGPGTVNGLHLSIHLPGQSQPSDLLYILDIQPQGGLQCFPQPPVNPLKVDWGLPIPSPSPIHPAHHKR
T1 sequence (P08514 891-1039 partner limits assumed): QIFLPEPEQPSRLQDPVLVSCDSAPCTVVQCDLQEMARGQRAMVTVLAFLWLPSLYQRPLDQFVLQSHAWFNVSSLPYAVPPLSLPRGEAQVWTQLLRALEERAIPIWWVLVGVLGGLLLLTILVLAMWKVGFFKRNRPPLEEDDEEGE
T1 sequence (P05106 27-788): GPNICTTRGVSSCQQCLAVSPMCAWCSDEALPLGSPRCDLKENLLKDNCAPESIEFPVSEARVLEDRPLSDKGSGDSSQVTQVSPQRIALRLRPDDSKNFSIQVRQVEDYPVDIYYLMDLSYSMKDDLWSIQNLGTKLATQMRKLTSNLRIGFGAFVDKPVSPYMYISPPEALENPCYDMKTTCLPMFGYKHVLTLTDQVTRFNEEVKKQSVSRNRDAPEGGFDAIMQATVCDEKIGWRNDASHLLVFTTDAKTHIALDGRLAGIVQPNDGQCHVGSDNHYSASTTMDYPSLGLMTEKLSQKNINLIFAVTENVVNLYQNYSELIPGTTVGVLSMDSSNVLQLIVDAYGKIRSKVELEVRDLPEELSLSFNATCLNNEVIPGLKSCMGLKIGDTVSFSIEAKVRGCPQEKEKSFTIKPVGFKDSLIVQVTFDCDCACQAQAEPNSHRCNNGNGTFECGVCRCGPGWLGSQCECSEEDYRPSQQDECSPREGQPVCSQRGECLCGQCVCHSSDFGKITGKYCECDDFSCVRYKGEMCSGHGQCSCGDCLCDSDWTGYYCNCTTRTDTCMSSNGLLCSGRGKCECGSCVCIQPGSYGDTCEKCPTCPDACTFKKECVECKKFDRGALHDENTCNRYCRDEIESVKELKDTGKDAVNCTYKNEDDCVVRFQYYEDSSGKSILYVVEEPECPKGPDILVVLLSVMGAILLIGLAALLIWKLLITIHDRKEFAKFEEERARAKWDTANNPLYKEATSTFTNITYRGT
Procedure: This Example illustrates that a peptide can be used to inhibit binding of von Willebrand factor to ADP-treated human platelets. FIG. 8 illustrates the level of inhibition of ^125 I-labelled von Willebrand factor or fibrinogen binding to ADP-modified human platelets by incubation with a synthetic dodecapeptide

[5] = molecular target: T2, ristocetin-modified human platelets (von Willebrand factor binding site) (Homo sapiens, UniProt P07359); assay: Inhibition of 125I-labelled von Willebrand factor binding to ristocetin-treated human platelets; conditions: human platelets treated with 0.6 mg/ml ristocetin, FIG. 8
T2 construct: von Willebrand factor to human platelets treated with 0.6 mg/ml ristocetin; endogenous in cells; host or cells: human platelets treated with ristocetin
T2 sequence (P07359 17-652): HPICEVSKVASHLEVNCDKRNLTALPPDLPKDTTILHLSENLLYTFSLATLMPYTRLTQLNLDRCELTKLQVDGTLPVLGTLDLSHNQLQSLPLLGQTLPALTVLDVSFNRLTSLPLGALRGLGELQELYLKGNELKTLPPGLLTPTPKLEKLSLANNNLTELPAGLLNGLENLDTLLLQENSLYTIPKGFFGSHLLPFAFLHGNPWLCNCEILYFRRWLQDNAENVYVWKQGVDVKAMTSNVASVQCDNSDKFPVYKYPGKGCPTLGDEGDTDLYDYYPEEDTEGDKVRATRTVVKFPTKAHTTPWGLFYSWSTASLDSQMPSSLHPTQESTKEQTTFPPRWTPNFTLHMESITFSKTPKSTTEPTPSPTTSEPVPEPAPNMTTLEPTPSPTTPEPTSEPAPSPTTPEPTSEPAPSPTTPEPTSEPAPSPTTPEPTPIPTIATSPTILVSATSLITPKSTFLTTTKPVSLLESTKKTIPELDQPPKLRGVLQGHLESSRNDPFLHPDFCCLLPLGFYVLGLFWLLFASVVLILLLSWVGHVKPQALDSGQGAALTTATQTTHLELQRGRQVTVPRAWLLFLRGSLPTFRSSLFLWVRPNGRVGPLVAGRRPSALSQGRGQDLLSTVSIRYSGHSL
T2 sequence (P13224 26-206 partner): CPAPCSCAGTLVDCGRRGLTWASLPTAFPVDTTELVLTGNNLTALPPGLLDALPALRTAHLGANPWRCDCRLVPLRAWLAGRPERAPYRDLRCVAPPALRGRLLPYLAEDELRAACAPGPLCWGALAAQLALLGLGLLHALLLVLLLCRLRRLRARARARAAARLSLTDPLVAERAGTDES
T2 sequence (P14770 17-177 partner): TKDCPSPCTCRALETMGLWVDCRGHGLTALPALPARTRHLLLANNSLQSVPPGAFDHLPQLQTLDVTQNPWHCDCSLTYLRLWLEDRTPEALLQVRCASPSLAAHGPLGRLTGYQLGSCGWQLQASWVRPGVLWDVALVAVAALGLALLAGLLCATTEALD
T2 sequence (P40197 17-560 partner): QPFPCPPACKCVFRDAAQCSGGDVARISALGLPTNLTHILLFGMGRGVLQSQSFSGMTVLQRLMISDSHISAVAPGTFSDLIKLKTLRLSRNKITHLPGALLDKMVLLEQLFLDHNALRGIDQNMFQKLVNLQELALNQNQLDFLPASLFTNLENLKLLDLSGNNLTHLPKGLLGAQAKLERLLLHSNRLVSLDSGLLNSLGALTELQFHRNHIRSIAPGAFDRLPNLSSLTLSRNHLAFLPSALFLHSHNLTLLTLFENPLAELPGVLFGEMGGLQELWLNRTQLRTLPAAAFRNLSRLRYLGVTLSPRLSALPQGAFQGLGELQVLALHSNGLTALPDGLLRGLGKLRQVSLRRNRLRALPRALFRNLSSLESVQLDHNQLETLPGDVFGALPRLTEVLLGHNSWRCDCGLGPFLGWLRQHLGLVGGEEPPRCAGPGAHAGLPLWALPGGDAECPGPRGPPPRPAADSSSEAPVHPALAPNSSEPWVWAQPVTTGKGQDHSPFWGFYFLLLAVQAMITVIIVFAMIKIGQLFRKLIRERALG

## HHLGGAKQAGDV [inhibitory peptide]
[1]; infusion through the mesenteric cannula
  bleeding time relative to its original time (diluent infusion): more than double its original time
[1]; said to show clearance of the peptide
  time to resume original bleeding time after peptide infusion is replaced by diluent: approximately 20 minutes

## unconjugated peptides: the peptides of the polyvalent conjugate themselves, unconjugated (gamma chain residues 397-411 with cysteine)
[2]
  inhibition of platelet aggregation induced by the polyvalent conjugate (artificial fibrinogen): aggregation reaction by the artificial fibrinogen conjugate is inhibited

## HHLGGAKQAGDV [dodecapeptide, H2 N-His-His-Leu-Gly-Gly-Ala-Lys-Gln-Ala-Gly-Asp-Val-C OOH]
[3]
  inhibition of 125I-labelled fibrinogen binding: substantial binding inhibition
[4]
  inhibition of 125I-labelled von Willebrand factor binding: substantial binding inhibition
[5]
  inhibition of 125I-labelled von Willebrand factor binding: does not inhibit
